According to patent publication US20160310512A1, “THERAPY REGIMEN FOR TREATING SEVERE ACNE RELATED DISEASES” (GALDERMA RESEARCH & DEVELOPMENT, priority 2013, published 2016):

Assays:
[1] = when combined with BPO; unlike tretinoin; cited from earlier work
severe acne vulgaris [2] = test: Multi-center randomized investigator-blind clinical study, 20 weeks: efficacy on acne lesions, nodules and atrophic scars; assay type: in vivo, human; conditions: for Atrophic acne scar count (Mean ± SD): half face
Procedure: This example was the first study evaluating the concomitant use of these treatments.
Isotretinoin is administrated under capsule form (of 40 mg and/or 10 mg each). The quantity administrated was calculated according to patient weight and treatment duration in order to finally administrate a dosage of 0.5 mg/kg for the first 4 weeks of treatment and 1 mg/kg for the 16 remaining weeks.
This study was conducted as a multi-center, randomized, investigator-blind, controlled and parallel group trial. This non-inferiority study involved subjects of any race, aged 12 to 35 years inclusive with severe acne and meeting specific eligibility criteria.
Subjects were randomized at baseline and treated for 20 weeks with either Adapalene-BPO gel associated with oral doxycycline or its vehicle gel associated with oral Isotretinoin.
A total of 266 subjects were enrolled across 29 centres in Canada. Of which, 217 subjects were included in the analysis-per-protocol (PP) populations (all randomized subjects without any major protocol deviations) for primary endpoint analysis. All other endpoints were analysed with population-intent-to-treat (ITT) (all randomized subjects who were dispensed study medication) (N=266).
For efficacy variables, in order to evaluate the effect of major deviations or of data exclusions, the ITT population were analyzed at each visit using the last observation carried forward (LOCF) to impute missing values. If no post-baseline data was available, baseline was carried forward. […] The other missing values were not replaced (observed data).
(§1) Reduction of at least 75% of number of nodules at the end of treatment
Other secondary efficacy endpoints were the percent change from baseline visit in Total lesion counts, Inflammatory lesion counts, Nodule counts, and the total atrophic acne scar counts.

severe acne vulgaris [3] = test: Same clinical study: composite overall success (efficacy + safety); assay type: in vivo, human
Text: To achieve this objective, a primary outcome, overall success, was defined as a composite endpoint including efficacy and safety measurements.
Overall success was deemed to be reached when the 2 following criteria were fulfilled:
as §1

P. acnes = P. acnes presence by UV fluorescence photography (Visia system), subset of 40 subjects; assay type: in vivo
Procedure: Atrophic acne scar counts were conducted on half the face and the presence of P. acnes were also assessed by UV fluorescence photography (Visia® system—Canfield Scientific, Inc.). […] As few centers were equipped with this system, this test was performed on a subset of only 40 subjects.

[4] = APT, Very Bothered at least 1 Month + Persisting at least 2 Weeks + At least 1 episode
[5] = ITT observed, chelitis, xerosis, erythema, dry mouth, pruritus, epistaxis, conjunctivitis, eye irritation, dry eye
[6] = ITT observed, lip balm, moisturizer, cleanser, cosmetics not counted
[7] = ITT observed, phototoxicity, allergic skin/eczematous reaction, candida vaginitis
[8] = ITT observed, study termination at subject's request motivated by treatment concern
[9] = ITT Observed population, count (%)

## COc1ccc(-c2ccc3cc(C(=O)O)ccc3c2)cc1C12CC3CC(CC(C3)C1)C2 [Adapalene, 6-[3-(1-adamantyl)-4-methoxyphenyl]-2-naphtoic acid]
[1]
  stability in the presence of light: stable

## CC1=C(/C=C/C(C)=C/C=C/C(C)=C\C(=O)O)C(C)(C)CCC1 [Vehicle + Isotretinoin, 13-cis-retinoic acid]
APT
  Clinically significant lab abnormality, Evt: 6 n
  Clinically significant lab abnormality, Subj.: 4 (3.0%) n (%)
  Related AE requiring a prescription of a concomitant medical treatment, Evt: 34 n
  Related AE requiring a prescription of a concomitant medical treatment, Subj.: 27 (25.6%) n (%)
  Related AEs deemed as safety failure, Subj.: 45 (33.8%) n (%)
  Related AEs leading to discontinuation, Evt: 5 n
  Related AEs leading to discontinuation, Subj.: 4 (3.0%) n (%)
  Related AEs, Evt: 299 n
  Related AEs, Subj. with at least one event: 117 (88.0%) n (%)
  Related serious AEs, Evt: 1 n
  Related serious AEs, Subj.: 1 (0.8%) n (%)
  Related severe AEs, Evt: 5 n
  Related severe AEs, Subj.: 5 (3.8%) n (%)
  subjects reporting at least 1 related AE: 88%
  subjects with related AEs deemed as a safety failure (AEs of special management concern): 33.8%
[4]
  Other medically relevant related AEs, Evt: 35 n
  Other medically relevant related AEs, Subj.: 23 (17.3%) n (%)
APT, each AE counted once
  Related AEs deemed as safety failure, Evt: 73 n
ITT observed
  Clinically significant lab abnormality, Event: 6 n
  Clinically significant lab abnormality, Subject: 4 (3.2%) n, %
  Inability to escalate to Iso 1 mg/kg/day, Event: 5 n
  Inability to escalate to Iso 1 mg/kg/day, Subject: 5 (4.0%) n, %
  Necessity of oral drug downward dose adjustment, Event: 2 n
  Necessity of oral drug downward dose adjustment, Subject: 2 (1.6%) n, %
  Related AE leading to discontinuation, Event: 5 n
  Related AE leading to discontinuation, Subject: 4 (3.2%) n, %
  Related SAE, Event: 1 n
  Related SAE, Subject: 1 (0.8%) n, %
  Related Severe AE, Event: 5 n
  Related Severe AE, Subject: 5 (4.0%) n, %
  Safety Failure, Event: 95 n
  Safety Failure, Subject: 50 (40.0%) n, %
  subjects with safety failure: 40.0%
[5]
  Predefined related AE Very Bothered, at least 1 Month, Event: 2 n
  Predefined related AE Very Bothered, at least 1 Month, Subject: 2 (1.6%) n, %
[6]
  Related AE requiring a prescription of a concomitant medical treatment, Event: 34 n
  Related AE requiring a prescription of a concomitant medical treatment, Subject: 27 (21.6%) n, %
[7]
  Predefined related AE for at least 1 episode, Event: 21 n
  Predefined related AE for at least 1 episode, Subject: 15 (12.0%) n, %
[8]
  Subject's treatment concern, Event: 2 n
  Subject's treatment concern, Subject: 2 (1.6%) n, %
PP population, 20 weeks
  Safety Success (absence of medically relevant events): 67 (59.8%) patients (%)
Severe acne vulgaris [2]; ITT observed
  Efficacy failure (nodule reduction <75%), Event: 2 n
  Efficacy failure (nodule reduction <75%), Subject: 2 (1.6%) n, %
Severe acne vulgaris [2]; PP population, end of 20-week treatment
  Efficacy Success (nodule reduction >75%): 110 (98.2%) patients (%)
Severe acne vulgaris [2]; W12-LOCF (ITT)
  Atrophic acne scar count (Mean ± SD): 16.7 ± 15.7
Severe acne vulgaris [2]; W20-LOCF (ITT)
  Atrophic acne scar count (Mean ± SD): 16.1 ± 16.7
Severe acne vulgaris [2]; Week 20, ITT LOCF
  Inflammatory lesions (Median) (not including nodules), % change: −95%
  Nodules (Mean), % change: −96%
  Total lesion counts (Median), % change: −93%
Severe acne vulgaris [2]; Week 20, most of the acne lesion outcomes
  acne lesion outcomes compared to Adapalene-BPO+Doxycycline (in words): superior
Severe acne vulgaris [3]; [9]
  Overall success: Failure: 52 (41.6%)
  Overall success: Success: 73 (58.4%)
Severe acne vulgaris [3]; PP population, 20 weeks
  Overall Success: 65 (58.0%) patients (%)
Severe acne vulgaris [3]; PP population, count (%)
  Overall success: Failure: 47 (42.0%)
Severe acne vulgaris [3]; intent-to-treat population, p=0.125
  composite endpoint (efficacy and safety), overall success: 54.9%
Severe acne vulgaris [3]; per-protocol population, p=0.014
  composite endpoint (efficacy and safety), overall success: 58%
P. acnes; week 2
  P. acnes fluorescence, median percent change: +14.1%
P. acnes; week 20
  P. acnes reduction (in words): in favor of ISO
